How the values were obtained:
[1] = tested on: Erk phosphorylation; experiment: Growth factor (bFGF) stimulated Erk phosphorylation in NIH 3T3 cells; conditions: Mus musculus, NIH3T3, NIH 3T3 cells, 3 ng/ml bFGF; upper bound of bin
[2] = molecular target: FGFR1 kinase (Homo sapiens, UniProt P11362); experiment: Kinase assay (using Caliper technology); format: biochemical; conditions: FGFR1 kinase, Caliper; upper bound of bin; read-out: IC50
Description: To determine inhibition of FGFR activity, kinase assays were conducted using Caliper technology.
Kinase activity assays were performed in Greiner 384-well low volume plates, with a total reaction volume of 12ul per well. […] The substrate for each assay was a custom peptide with fluorescent tag (13 amino acids in length) the sequence of which was specific for FGFR1 kinase.
Compounds were serially diluted in 5% (v/v) DMSO, before being added to assay plates.
Assay plates were incubated at room temperature for 1.5 h, before the reaction was stopped with the addition of buffer [comprising: 100 mM HEPES—pH7.5, 0.033% Brij-35, 0.22% Caliper Coating Reagent #3, 88mM EDTA, 5% DMSO]. Stopped assay plates were then read using the Caliper LabChip® LC3000 (which uses microfludics to measure a shift in mobility between fluorescent labelled peptide and the FGFR1 kinase—phosphorylated form of this peptide).

[3] = molecular target: T1, human IGF1R (Homo sapiens, UniProt P08069); experiment: Inhibition of insulin-like growth factor-1 receptor phosphorylation in R+ cells; format: cell-based; conditions: 30 nM IGF1, read-out: IGF cell class
T1 construct: expressed in transfected cells; host or cells: R+ cells (R- mouse fibroblasts transfected with human IGF1R)
T1 sequence (P08069 31-1367): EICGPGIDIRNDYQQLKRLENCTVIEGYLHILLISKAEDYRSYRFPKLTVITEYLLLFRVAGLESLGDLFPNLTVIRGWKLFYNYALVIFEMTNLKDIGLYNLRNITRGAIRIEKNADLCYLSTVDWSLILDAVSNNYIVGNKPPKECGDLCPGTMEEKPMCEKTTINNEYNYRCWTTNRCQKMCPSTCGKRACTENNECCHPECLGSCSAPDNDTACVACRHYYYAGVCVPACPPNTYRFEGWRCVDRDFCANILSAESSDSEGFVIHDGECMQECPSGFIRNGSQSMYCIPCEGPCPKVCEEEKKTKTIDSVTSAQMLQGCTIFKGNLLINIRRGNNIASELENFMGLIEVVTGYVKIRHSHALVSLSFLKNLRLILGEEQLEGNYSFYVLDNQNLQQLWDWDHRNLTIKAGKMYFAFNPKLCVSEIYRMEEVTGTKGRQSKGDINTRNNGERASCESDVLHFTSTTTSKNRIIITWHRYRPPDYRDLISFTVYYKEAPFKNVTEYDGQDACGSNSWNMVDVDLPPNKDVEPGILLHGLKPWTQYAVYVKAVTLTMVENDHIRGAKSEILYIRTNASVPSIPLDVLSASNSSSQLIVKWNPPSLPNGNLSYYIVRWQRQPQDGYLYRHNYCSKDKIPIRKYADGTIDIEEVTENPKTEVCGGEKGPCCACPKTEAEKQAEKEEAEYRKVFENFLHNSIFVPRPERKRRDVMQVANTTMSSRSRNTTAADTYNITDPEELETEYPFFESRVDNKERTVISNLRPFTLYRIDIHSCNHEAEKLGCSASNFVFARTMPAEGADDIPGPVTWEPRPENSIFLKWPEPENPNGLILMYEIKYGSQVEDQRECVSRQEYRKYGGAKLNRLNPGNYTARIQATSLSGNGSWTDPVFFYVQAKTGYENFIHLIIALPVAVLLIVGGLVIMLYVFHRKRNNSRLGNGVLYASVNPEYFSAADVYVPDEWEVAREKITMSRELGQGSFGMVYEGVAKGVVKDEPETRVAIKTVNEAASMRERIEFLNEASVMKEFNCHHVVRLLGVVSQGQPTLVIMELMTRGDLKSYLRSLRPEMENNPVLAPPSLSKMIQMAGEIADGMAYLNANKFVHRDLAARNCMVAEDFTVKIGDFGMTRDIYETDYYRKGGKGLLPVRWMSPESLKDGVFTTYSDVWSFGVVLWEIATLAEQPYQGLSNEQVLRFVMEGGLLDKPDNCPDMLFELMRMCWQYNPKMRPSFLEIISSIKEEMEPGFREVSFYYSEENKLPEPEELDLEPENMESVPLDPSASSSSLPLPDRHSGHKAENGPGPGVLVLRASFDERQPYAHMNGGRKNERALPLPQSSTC
Description: This immunofluorescence end point cell assay measures the ability of a test compound to reduce the measured levels of IGF1R phosphorylation after IGF1 stimulation in R^+ cells. […] were derived by transfection of R^− mouse fibroblast cells with human IGF1R.
(+5% CO2) incubator for 30 minutes.
Following the compound treatment, the R^+ cells were stimulated with a final concentration of 30 nM IGF1 (Gropep 1M001) for 20 minutes at 37° C. […] Plates were incubated for 1 hour at room temperature. […] Additionally, in-house antibodies raised against phospho […] were also used at a suitable titre determined for each batch.
The plates were incubated at room temperature for one hour. […] After addition of 100 μl/well PBS the plates were sealed with a black seal.
The Green Fluorescent phospho IGF1R -associated signal in each well was measured using an Acumen Explorer HTS Reader (TTP Labtech Ltd., Cambridge). […] The instrument is a laser-scanning fluorescence microplate cytometer, which samples the well at regular intervals and uses threshold algorithms to identify all fluorescent intensities above the solution background without the need to generate and analyse an image. These fluorescent objects can be quantified and provide a measure of the phospho IGF1R levels in cells. Fluorescence dose response data obtained with each compound was exported into a suitable software package (such as Origin) to perform curve fitting analysis. Phospho-IGF1R levels in response to compound treatment versus stimulated and unstimulated controls were expressed as an IC50 value.

[4] = molecular target: T2, FGFR1 IIIc (Homo sapiens, UniProt P11362); experiment: Cell based inhibition of transiently expressed FGFR1 IIIc phosphorylation via use of ECHO technology (Cos-1 cells); conditions: Cos-1 cells, phospho-FGFR1, ECHO dosing; upper bound of bin; read-out: IC50
T2 construct: host or cells: Cos-1
T2 sequence (P11362 22-822): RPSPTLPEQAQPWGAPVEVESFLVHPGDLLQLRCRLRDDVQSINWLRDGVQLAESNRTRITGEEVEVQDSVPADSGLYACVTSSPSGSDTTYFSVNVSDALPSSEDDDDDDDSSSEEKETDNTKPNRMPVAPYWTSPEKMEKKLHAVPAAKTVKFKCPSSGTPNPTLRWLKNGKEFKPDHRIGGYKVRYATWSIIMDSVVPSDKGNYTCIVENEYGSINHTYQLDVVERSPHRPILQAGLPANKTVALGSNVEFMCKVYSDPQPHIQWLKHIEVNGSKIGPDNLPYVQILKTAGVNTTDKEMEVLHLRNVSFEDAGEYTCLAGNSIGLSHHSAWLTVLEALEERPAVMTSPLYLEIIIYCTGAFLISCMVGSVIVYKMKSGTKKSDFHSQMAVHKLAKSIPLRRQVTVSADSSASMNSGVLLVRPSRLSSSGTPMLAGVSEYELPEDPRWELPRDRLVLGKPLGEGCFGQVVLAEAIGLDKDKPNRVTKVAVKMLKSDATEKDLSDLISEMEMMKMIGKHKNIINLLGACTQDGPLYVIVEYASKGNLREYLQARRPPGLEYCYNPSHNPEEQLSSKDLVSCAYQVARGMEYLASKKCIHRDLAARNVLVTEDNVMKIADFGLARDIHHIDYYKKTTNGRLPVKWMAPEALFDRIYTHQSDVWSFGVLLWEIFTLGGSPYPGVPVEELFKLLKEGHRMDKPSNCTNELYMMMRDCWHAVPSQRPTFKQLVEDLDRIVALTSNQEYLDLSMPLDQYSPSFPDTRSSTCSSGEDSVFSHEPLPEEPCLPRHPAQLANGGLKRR
Description: This assay is designed to detect inhibitors of transiently expressed FGFR1 phosphorylation by antibody staining of fixed cells detected using ArrayScan technology.
To undertake the assay, Cos-1 cells were harvested at 90-95% confluence for cell transfection. For each 96-well plate, 24μl Lipofectamine 2000 was added to 809 ul OptiMEM and incubated at room temperature for 5 minutes. […] Equal volumes of DNA and Lipofectamine 2000 were combined (DNA: Lipid=1:1.2 ratio) and incubated at room temperature for 20 minutes.
The harvested Cos-1 cells are counted using a coulter counter and diluted further with 1% FCS/DMEM to 2.5×10^5 cells/ml. For each 96-well, 8.33 ml cells were required. […] 70 μl of media was aspirated from the assay plate using the Quadra before the plate was transferred onto the ECHO 550. […] Compound transfer to the assay plate on the ECHO 550 was at concentration ranges 1)10 μM, 2) 3 μM, 3) 1 μM, 4) 0.3 μM, 5) 0.1 μM, 6) […].
The plates were gently tapped to mix compound in with the cell media and left to incubate at 37° C. with 5% CO2 for 1 hour.
Media was removed from the wells using vacuum aspiration; cells were fixed by adding 50 μl of 100% methanol to each well and incubated at room temperature for 20 minutes.
The plates were read on an Arrayscan (Cellomics).

Sequence of FGFR1 kinase (P11362 22-822): as above

IC50 [2] [µM] | IC50 [3] [µM] | IC50 [4] [µM] | Compound | IC50 [1] [µM]
< 1 |  |  | COCCCc1cc(Nc2ccnc(NCc3cc(C4CCC4)no3)n2)n[nH]1 [Example 23, N-[(3-Cyclobutyl1,2-oxazol-5-yl)methyl]-N′-[5-(3-methoxypropyl)-1H-pyrazol-3-yl]pyrimidine-2,4-diamine] | < 1
< 1 | 1 to 10 | < 1 | COc1ccc(CCc2cc(Nc3ccnc(NCc4cc(-c5ncccn5)no4)n3)n[nH]2)cc1 [Example 32, N′-[5-[2-(4-methoxyphenyl)ethyl]-2H-pyrazol-3-yl]-N-[(3-pyrimidin-2-yl-1,2-oxazol-5-yl)methyl]pyrimidine-2,4-diamine] | 
< 10 | > 10 |  | c1ccc(OCc2cc(Nc3ccnc(NCc4cc(C5CC5)no4)n3)[nH]n2)cc1 [Example 35, N-[(3-cyclopropyl1,2-oxazol-5-yl)methyl]-N′-[5-(phenoxymethyl)-2H-pyrazol-3-yl]pyrimidine-2,4-diamine] | < 1
< 10 | > 10 | < 30 | NC(=O)c1cc(CNc2nccc(Nc3cc(COc4ccccc4)n[nH]3)n2)on1 [Example 36, 5-[[[4-[[5-(phenoxymethyl)-2H-pyrazol-3-yl]amino]pyrimidin-2-yl]amino]methyl]1,2-oxazole-3-carboxamide] | 
< 30 | 1 to 10 |  | Cc1cc(CNc2nccc(Nc3cc(CCc4ccc(OCc5ccccc5)cc4)[nH]n3)n2)on1 [Example 37, N-[(3-methyl1,2-oxazol-5-yl)methyl]-N′-[5-[2-(4-phenylmethoxyphenyl)ethyl]-2H-pyrazol-3-yl]pyrimidine-2,4-diamine] | < 10
< 1 | > 10 | < 10 | NC(=O)c1cc(CNc2nccc(Nc3cc(CCc4ccccc4)n[nH]3)n2)on1 [Example 50, 5-[[[4-[(5-phenethyl-2H-pyrazol-3-yl)amino]pyrimidin-2-yl]amino]methyl]-1,2-oxazole-3-carboxamide] | 
< 10 | > 10 |  | Cc1cc(CNc2nccc(Nc3cc(CCc4cccc(N5CCOCC5)c4)[nH]n3)n2)on1 [Example 55, N-[(3-methyl1,2-oxazol-5-yl)methyl]-N′-[5-[2-(3-morpholin-4-ylphenyl)ethyl]-1H-pyrazol-3-yl]pyrimidine-2,4-diamine] | < 10
< 10 | > 10 |  | CCc1cccc(COc2cc(Nc3ccnc(NCc4cc(C)no4)n3)n[nH]2)c1 [Example 74, N′-[5-[(3-ethylphenyl)methoxy]-2H-pyrazol-3-yl]-N-[(3-methyl1,2-oxazol-5-yl)methyl]pyrimidine-2,4-diamine] | < 1
 | > 10 |  | COCC(C)Oc1cc(Nc2ccnc(NCc3cc(C4CC4)no3)n2)n[nH]1 (centres unmarked) [Example 76, N-[(3-cyclopropyl-1,2-oxazol-5-yl)methyl]-N′-[5-(1-methoxypropan-2-yloxy)-1H-pyrazol-3-yl]pyrimidine-2,4-diamine] | < 1
 |  |  | CCOC(=O)c1cc(CNc2nccc(Nc3cc(OC(C)C)n[nH]3)n2)on1 [Example 77, Ethyl 5-[[[4-[(5-propan-2-yloxy-2H-pyrazol-3-yl)amino]pyrimidin-2-yl]amino]methyl]1,2-oxazole-3-carboxylate] | < 1
< 1 |  |  | CC(C)Oc1cc(Nc2ccnc(NCc3cc(C(=O)N(C)C)no3)n2)[nH]n1 [Example 80, N,N-dimethyl-5-[[[4-[(5-propan-2-yloxy-2H-pyrazol-3-yl)amino]pyrimidin-2-yl]amino]methyl]1,2-oxazole-3-carboxamide] | < 10
< 10 |  |  | CC(C)Oc1cc(Nc2ccnc(NCc3cc(-c4cncnc4)no3)n2)n[nH]1 [Example 81, N′-(5-propan-2-yloxy-2H-pyrazol-3-yl)-N-[(3-pyrimidin-5-yl1,2-oxazol-5-yl)methyl]pyrimidine-2,4-diamine] | < 10
< 1 |  |  | CC(C)Oc1cc(Nc2ccnc(NCc3cc(C4CCOC4)no3)n2)[nH]n1 (centres unmarked) [Example 83, N-[[3-(oxolan-3-yl)1,2-oxazol-5-yl]methyl]-N′-(5-propan-2-yloxy-2H-pyrazol-3-yl)pyrimidine-2,4-diamine] | < 10
< 10 |  |  | CC(C)Oc1cc(Nc2ccnc(NCc3cc(C4CCOCC4)no3)n2)[nH]n1 [Example 85, N-[[3-(oxan-4-yl)1,2-oxazol-5-yl]methyl]-N′-(5-propan-2-yloxy-2H-pyrazol-3-yl)pyrimidine-2,4-diamine] | < 10
< 0.2 |  |  | CCOc1cc(Nc2ccnc(NCc3cc(C)no3)n2)n[nH]1 [Example 86, N′-(5-ethoxy-1H-pyrazol-3-yl)-N-[(3-methyl1,2-oxazol-5-yl)methyl]pyrimidine-2,4-diamine] | < 1
< 10 | > 10 |  | Cc1cc(CNc2nccc(Nc3cc(OCc4cccc(N5CCOCC5)c4)[nH]n3)n2)on1 [Example 87, N-[(3-methyl1,2-oxazol-5-yl)methyl]-N′-[5-[(3-morpholin-4-ylphenyl)methoxy]-2H-pyrazol-3-yl]pyrimidine-2,4-diamine] | < 10
< 1 | 1 to 10 |  | Cc1cc(CNc2nccc(Nc3cc(OCc4cccc(NC(=O)OC(C)(C)C)c4)[nH]n3)n2)on1 [Example 89, tert-Butyl N-[3-[[5-[[2-[(3-methyl1,2-oxazol-5-yl)methylamino]pyrimidin-4-yl]amino]-1H-pyrazol-3-yl]oxymethyl]phenyl]carbamate] | < 1
< 10 |  |  | Cc1cc(CNc2nccc(Nc3cc(OCc4cccc(C(=O)O)c4)[nH]n3)n2)on1 [Example 98, 3-[[5-[[2-[(3-methyl1,2-oxazol-5-yl)methylamino]pyrimidin-4-yl]amino]-1H-pyrazol-3-yl]oxymethyl]benzoic acid] | < 10
< 1 | > 10 | < 1 | Cc1cc(CNc2nccc(Nc3cc(OCCOc4ccccc4)[nH]n3)n2)on1 [Example 101, N-[(3-methyl1,2-oxazol-5-yl)methyl]-N′-[5-(2-phenoxyethoxy)-2H-pyrazol-3-yl]pyrimidine-2,4-diamine] | 
< 0.2 |  |  | NC(=O)c1cc(CNc2nccc(Nc3cc(CCc4ccco4)n[nH]3)n2)on1 [Example 112, 5-[[[4-[[5-[2-(2-furyl)ethyl]-2H-pyrazol-3-yl]amino]pyrimidin-2-yl]amino]methyl]1,2-oxazole-3-carboxamide] | < 10
< 30 |  | < 10 | CNC(=O)c1cc(C)cc(CCc2cc(Nc3ccnc(NCc4cc(C)no4)n3)n[nH]2)c1 [Example 142, N,3-dimethyl-5-[2-[5-[[2-[(3-methyl-1,2-oxazol-5-yl)methylamino]pyrimidin-4-yl]amino]-1H-pyrazol-3-yl]ethyl]benzamide] | 
< 10 |  | < 30 | CNC(=O)c1cc(OC)cc(CCc2cc(Nc3ccnc(NCc4cc(C)no4)n3)n[nH]2)n1 [Example 143, 4-Methoxy-N-methyl-6-[2-[5-[[2-[(3-methyl-1,2-oxazol-5-yl)methylamino]pyrimidin-4-yl]amino]-1H-pyrazol-3-yl]ethyl]pyridine-2-carboxamide] | 

Reference: patent US20080004302A1, “Novel Compounds” (ASTRAZENECA AB, priority 2006, published 2008)
